This note sets out measurements from patent publication US5041448A, “(4-piperidinylmethyl and -hetero) purines” (Janssen Pharmaceutica N.V., priority 1985, dated 1991).

The subject of the first test is compound 48/80-induced lethality in rats. The test can be described thus: Protection of rats from compound 48/80-induced lethality. In kind it is in vivo, rat (male, inbred Wistar strain). Particulars: Rattus norvegicus, 4 h, male Wistar rats; s.c. or oral, one hour before 0.5 mg/kg i.v. compound 48/80; ED50 = dose protecting 50% of animals; survival after 4 hours; read-out: compound 48/80 lethality test in rats-ED50. The source says: Protection of rats from compound 48/80-induced lethality.
Compound 48/80, a mixture of oligomers obtained by condensation of 4-methoxy-N-methylbenzeneethanamine and formaldehyde has been described as a potent histamine releasing agent (Int. Arch. Allergy, 13, 336 (1958)). The protection from compound 48/80-induced lethal circulatory collapse appears to be a simple way of evaluating quantitatively the antihistaminic activity of test compounds. Male rats of an inbred Wistar strain, weighing 240-260 g were used in the experiment. After overnight starvation the rats were transferred to conditioned laboratories (temp.=21±1° C., relative humidity=65±5%). The rats were treated subcutaneously or orally with a test compound or with the solvent (NaCl solution, 0.9%). One hour after treatment there was injected intravenously compound 48/80, freshly dissolved in water, at a dose of 0.5 mg/kg (0.2 ml/100 g of body weight). In control experiments, wherein 250 solvent-treated animals were injected with the standard dose of compound 48/80, not more than 2.8% of the animals survived after 4 hours. Survival after 4 hours is therefore considered to be a safe criterion of a protective effect of drug administration.
Said ED50 -values are the values in mg/kg body weight at which the tested compounds protect 50% of the tested animals against compound 48/80-induced lethality.
For the compound `Cl.Cl.O.O.c1coc(Cn2c(NC3CCN(CC4COc5ccccc5O4)CC3)nc3cncnc32)c1` (stereo not shown) [Compound 60, N-[1-[(2,3-dihydro-1,4-benzodioxin-2-yl)methyl]-4-piperidinyl]-9-(2-furanyl-methyl)-9H-purin-8-amine dihydrochloride dihydrate], the ED50 worked out at 0.08 mg/kg.
With `Cc1ccc(Cn2c(NC3CCN(CC4COc5ccccc5O4)CC3)nc3cncnc32)o1` (stereo not shown) [Compound 61, N-[1-[(2,3-dihydro-1,4-benzodioxin-2-yl)methyl]-4-piperidinyl]-9-[(5-methyl-2-furanyl)methyl]-9H-purin-8-amine], the ED50 stood at 0.01 mg/kg.
In the case of `COc1ccc(CCN2CCC(Cc3nc4ncnc(O)c4n3Cc3ccc(F)cc3)CC2)cc1` [Compound 62, 7-[(4-fluorophenyl)methyl]-8-[[1-[2-(4-methoxyphenyl)ethyl]-4-piperidinyl]methyl]-7H-purin-6-ol], the ED50 is 0.04 mg/kg.
On the same count and under the same terms, under `COc1ccc(CCN2CCC(Oc3nc4cncnc4n3Cc3ccc(F)cc3)CC2)cc1` [Compound 64] stands 0.08 mg/kg.
In the case of `COc1ccc(CCN2CCC(Nc3nc4cncnc4n3Cc3ccccn3)CC2)cc1` [Compound 74, N-[1-[2-(4-methoxyphenyl)ethyl]-4-piperidinyl]-9-(2-pyridinylmethyl)-9H-purin-8-amine], the ED50 is 0.01 mg/kg.
The same measure, in the same setting: for `COc1ccc(CCN2CCC(Nc3nc4cncnc4n3Cc3ccc(F)cc3)CC2)cc1` [Compound 75] the value was 0.08 mg/kg; for `COc1ccc(CCN2CCC(Nc3nc4cncnc4n3Cc3ccco3)CC2)cc1` [Compound 76], 0.02 mg/kg; for `COc1ccc(CCN2CCC(Nc3nc4cncnc4n3Cc3cccs3)CC2)cc1` [Compound 77], 0.02 mg/kg.
Regarding `COc1ccc(CCN2CCC(Nc3nc4ncncc4n3Cc3ccc(F)cc3)CC2)cc1` [Compound 78], the ED50 amounted to 0.04 mg/kg.
Still for that read-out and setting: for `COc1ccc(CCN2CCC(Nc3nc4cncnc4n3Cc3ccc(C)o3)CC2)cc1` [Compound 79] the value was 0.04 mg/kg.
For `COc1ccc(CCN2CCC(Nc3nc4cncnc4n3Cc3ccccc3)CC2)cc1` [Compound 83], the ED50 is 0.08 mg/kg.
As to `Cc1nc2ccccn2c(=O)c1CCN1CCC(Nc2nc3cncnc3n2Cc2cnccn2)CC1` [Compound 87, 2-methyl-3-[2-[4-[[9-(2-pyrazinylmethyl)-9H-purin-8-yl]amino]-1-piperidinyl]-ethyl]-4H-pyrido[1,2-a]pyrimidin-4-one], the ED50 stood at 0.08 mg/kg.
On the same count and under the same terms, under `Cc1nc2ccccn2c(=O)c1CCN1CCC(Nc2nc3cncnc3n2Cc2ccco2)CC1` [Compound 88] stands 0.02 mg/kg.
For `Cc1nc2ccccn2c(=O)c1CCN1CCC(Nc2nc3cncnc3n2Cc2cccs2)CC1` [Compound 89], the ED50 came to 0.08 mg/kg.
For the compound `Cc1nc2ccccn2c(=O)c1CCN1CCC(Nc2nc3cncnc3n2Cc2ccccc2)CC1` [Compound 100], the ED50 was 0.02 mg/kg.
As for `O=c1oc2ccccc2cc1CCN1CCC(Nc2nc3cncnc3n2Cc2ccco2)CC1` [Compound 104], the ED50 came out at 0.04 mg/kg.
Same read-out and setting: under `O=c1oc2ccccc2cc1CCN1CCC(Nc2nc3cncnc3n2Cc2ccccn2)CC1` [Compound 106] stands 0.08 mg/kg; under `Cc1ccc(Cn2c(NC3CCN(CCc4cc5ccccc5oc4=O)CC3)nc3cncnc32)o1` [Compound 107], 0.02 mg/kg; under `O=C(O)/C=C/C(=O)O.O=C(O)/C=C/C(=O)O.O=c1[nH]c2ccccc2n1CCCN1CCC(Cc2nc3cncnc3n2Cc2ccc(F)cc2)CC1` [Compound 114, 1-[3-[4-[[9-[(4-fluorophenyl)methyl]-9H-purine-8-yl]methyl]-1-piperidinyl]-propyl]-1,3-dihydro-2H-benzimidazol-2-one (E)-2-butenedioate(1:2)], 0.04 mg/kg.
The same measure, in the same setting: under `O=c1[nH]c2ccccc2n1CCN1CCC(Nc2nc3cncnc3n2Cc2ccc(F)cc2)CC1` [Compound 115, 1-[2-[4-[[9-[(4-fluorophenyl)methyl]-9H-puri-8-yl]amino]-1-piperidinyl]ethyl]-1,3-dihydro-2H-benzimidazol-2-one] stands 0.08 mg/kg.
The same measure, in the same setting: for `Fc1ccc(Cn2c(NC3CCN(CCc4ccccn4)CC3)nc3cncnc32)cc1` [Compound 141, 9-[(4-fluorophenyl)methyl]-N-[1-[2-(2-pyridinyl)ethyl]-4-piperidinyl]-9H-purin-8-amine] the value was 0.01 mg/kg; for `c1ccc(CCN2CCC(Nc3nc4cncnc4n3Cc3ccco3)CC2)nc1` [Compound 142, 9-(2-furanylmethyl)-N-[1-[2-(2-pyridinyl)ethyl]-4-piperidinyl]-9H-purin-8-amine], 0.02 mg/kg; for `c1ccc(CCN2CCC(Nc3nc4cncnc4n3Cc3cccs3)CC2)nc1` [Compound 143, N-[1-[2-(2-pyridinyl)ethyl]-4-piperidinyl]-9-(2-thienylmethyl)-9H-purin-8-amine], 0.02 mg/kg.
As for `c1ccc(CCN2CCC(Nc3nc4cncnc4n3Cc3ccccn3)CC2)nc1` [Compound 144, N-[1-[2-(2-pyridinyl)ethyl]-4-piperidinyl]-9-(2-pyridinylmethyl)-9H-purin-8-amine], the ED50 was found to be 0.04 mg/kg.
Still for that read-out and setting: under `Cc1ccc(Cn2c(NC3CCN(CCc4ccccn4)CC3)nc3cncnc32)o1` [Compound 145, 9-[(5-methyl-2-furanyl)methyl]-N-[1-[2-(2-pyridinyl)ethyl]-4a-piperidinyl]-9H-purin-8-amine] stands 0.01 mg/kg; under `c1cnc(NCCN2CCC(Nc3nc4cncnc4n3Cc3ccco3)CC2)nc1` [Compound 165], 0.02 mg/kg; under `c1cnc(NCCN2CCC(Nc3nc4cncnc4n3Cc3cccs3)CC2)nc1` [Compound 167], 0.08 mg/kg.
Turning to `Cc1ccc(Cn2c(NC3CCN(CCNc4ncccn4)CC3)nc3cncnc32)o1` [Compound 168], the ED50 is 0.02 mg/kg.
Same read-out and setting: for `COc1ncnc2c1nc(CC1CCN(CCNc3ncccn3)CC1)n2Cc1ccc(F)cc1` [Compound 169] the value was 0.08 mg/kg; for `Fc1ccc(Cn2c(CC3CCN(CCNc4ncccn4)CC3)nc3cncnc32)cc1` [Compound 171], 0.08 mg/kg.
On the same count and under the same terms, under `Fc1ccc(Cn2c(NC3CCN(CCNc4nccs4)CC3)nc3cncnc32)cc1` [Compound 172, 9-[(4-fluorophenyl)methyl]-N-[1-[2-(2-thiazolylamino)ethyl)-4-piperidinyl]-9H-purin-8-amine] stands 0.04 mg/kg; under `Fc1ccc(Cn2c(NC3CCN(CCNc4nc5cnccc5[nH]4)CC3)nc3cncnc32)cc1` [Compound 183, 9-[(4-fluorophenyl)methyl]-N-[1-[2-[(1H-imidazo[4,5-c]pyridin-2-yl)amino]ethyl]-4-piperidinyl]-9H-purin-8-amine (E)-2-butenedioate(1:3) monohydrate], 0.04 mg/kg.

Staying with this test, now noted: male Wistar rats; s.c. or oral, one hour before 0.5 mg/kg i.v. compound 48/80; ED50 = dose protecting 50% of animals; survival after 4 hours.
On to “9-(2-furanylmethyl)-N-[1-[4-[(2-thiazolyl)amino]pentyl]-4-piperidinyl]-9H-purin-8-amine [Compound 173]”, for which the “compound 48/80 lethality test in rats-ED50” value amounted to 0.08 mg/kg body weight.

The same test, now with this note: male Wistar rats; s.c. or oral, one hour before 0.5 mg/kg i.v. compound 48/80; ED50 = dose protecting 50% of animals; survival after 4 hours; 240 min.
Consider `COc1ccc(CCN2CCC(Nc3nc4cncnc4n3Cc3ccc(F)cc3)CC2)cc1` [Compound 80], for which the “compound 48/80 lethality test in rats-ED50” value was determined as 0.04 mg/kg body weight.
